Assay results from US20130172340A1, “SUBSTITUTED 2-(9H-PURIN-9-YL) ACETIC ACID ANALOGUES AS INHIBITORS OF STAT3” (University of Central Flordia Research Foundation,, priority 2010, published 2013).

Key:
NIH3T3 = test: CyQuant cell viability and proliferation assay, NIH3T3; type: cell-based; details: Mus musculus, 48 h, CyQuant viability
Method: (§1) Briefly, human breast (MDA-MB-231), pancreatic (Panc-1), and prostate (DU145) cancer cells, the v-Src transformed (NIH3T3/v-Src) fibroblasts or their normal counterparts (NIH3T3), and the murine thymic stromal epithelial cells (TE-71) were treated or not treated with 30-500 μM of the representative disclosed compounds, as indicated, for 48 h and assessed for viability using CyQuant cell proliferation kit. Values, mean (SD of 3 independent experiments each in triplicate.
(§2) Cells in culture in 6-well or 96-well plates were treated with or without agents for 24-144 h and subjected to CyQuant cell proliferation assay (Invitrogen Corp/Life Technologies Corp, Carlsbad, Calif.). IC50 values shown below were derived from the plot of viability versus drug concentration.
(§3) As aberrant STAT3 activity promotes cancer cell growth and survival, and tumor angiogenesis and metastasis (Turkson et al., 2004; Yue et al., 2009; Turkson et al., 2004; Turkson et al., 2001; Siddiquee et al., 2007; Siddiquee et al., 2007(b); Song et al., 2005; Turkson et al., 2005), the sensitivity of various cell lines to the purine scaffold treatment was tested. […] (see also Table 2). The data represented by FIG. 4 were the results of experiments performed in triplicate.

TE-71 = test: CyQuant cell viability and proliferation assay, TE-71; type: cell-based, murine; details: Mus musculus; 48 h, CyQuant viability
Method: as §1, §2, §3

MDA-MB-231 = test: CyQuant cell viability and proliferation assay, MDA-MB-231; type: cell-based; details: Homo sapiens, 48 h, CyQuant viability
Method: as §1, §2, §3

Panc-1 = test: CyQuant cell viability and proliferation assay, Panc-1; type: cell-based; details: Homo sapiens, 48 h, CyQuant viability
Method: as §1, §2, §3

DU 145 = test: CyQuant cell viability and proliferation assay, DU 145; type: cell-based; details: Homo sapiens, 48 h, CyQuant viability
Method: as §1, §2, §3

NIH3T3/v-Src = test: CyQuant cell viability and proliferation assay, NIH3T3/v-Src; type: cell-based; details: Mus musculus, 48 h, CyQuant viability
Method: as §1, §2, §3

pY705STAT3 [1] = test: Immunoblotting of constitutive STAT3 phosphorylation in NIH3T3/v-Src; type: cell-based, mouse; details: for constitutive STAT3 phosphorylation: NIH3T3/v-Src, 40 or 50 μM, 12, 24, or 48 h
Method: (§4) Positions of proteins in gel are labeled; control lanes (0) are whole-cell lysates from 0.05% DMSO-treated cells. Data are representative of 3-4 independent determinations. Further discussion on the figure is provided in the Experimental section below.
(§5) Immunoprecipitation, and SDS/PAGE and Western blotting analysis were performed as previously described (6, 16). Primary antibodies used were anti-STAT3, pY705STAT3, pY416Src, Src, pErk1/2, Erk1/2, pSTAT1, STAT1, (Cell Signaling), and antiphosphotyrosine, clone 4G10 (Upstate Biotechnology, Lake Placid, N.Y.). Where appropriate, cells were stimulated for 12 min by 9 ng/μl rhEGF (12 μl into 3 ml culture) prior to preparation of whole-cell lysates for immunoprecipitation and/or immunoblotting analysis.

pY705STAT3 [2] = test: Immunoblotting of constitutive STAT3 phosphorylation in MDA-MB-231; type: cell-based, human; details: for constitutive STAT3 phosphorylation: MDA-MB-231, 40 or 50 μM, 12, 24, or 48 h
Method: as §4, §5

pErk1/2 = test: Immunoblotting of constitutive phospho-ErkMAPK in NIH3T3/v-Src and MDA-MB-231; type: cell-based; details: same treatments, all panels of FIG. 2
Method: as §4, §5

pSrc = test: Immunoblotting of constitutive pSrc in NIH3T3/v-Src and MDA-MB-231; type: cell-based; details: same treatments, all panels of FIG. 2
Method: as §4, §5

pY705-STAT3 = test: Immunoblotting of EGF-induced STAT3 phosphorylation in NIH3T3/hEGFR; type: cell-based, mouse; details: EGF-stimulated
Method: As indicated, the cells were treated or untreated with the indicated agents at 40 or 50 μM for the indicated times and probing for pY705STAT3, STAT3, pErk1/2, Erk1/2, pSrc, Src, pSTAT1, STAT1, or pTyr (clone 4G10). Positions of proteins in gel are labeled; control lanes (0) are whole-cell lysates from 0.05% DMSO-treated cells. Data are representative of 3-4 independent determinations. Further discussion on the figure is provided in the Experimental section below.
as §5
The effect of 8bj and 17b on ligand-stimulated STAT activation was also examined. […] These findings were consistent with other reports regarding other SH2 domain binding STAT3 inhibitors. (Turkson et al., 2001; Siddiquee et al., 2007; Siddiquee et al., 2007(b)).

[3] = tested on: DU145, MDA-MB-231, Panc-1 and NIH3T3/v-Src cells; test: CyQuant cell proliferation assay, cells that harbor constitutively active STAT3; type: cell-based; details: 48 hours, 30-500 μM, DU145, MDA-MB-231, Panc-1, NIH3T3/v-Src
Description: Values, mean (SD of 3 independent experiments each in triplicate.
IC50 values shown below were derived from the plot of viability versus drug concentration.
(see also Table 2). The data represented by FIG. 4 were the results of experiments performed in triplicate.

STAT3 = STAT3 (Mus musculus, UniProt P42227); test: Surface plasmon resonance analysis of binding to STAT3; parameters: His; made in house; host or cells: E. coli BL21(DE3); species or system murine; details: SPR, purified STAT3 immobilized on HisCap Sensor Chip
Method: Coding regions for the murine STAT3 protein and STAT3 SH2 domain were amplified by PCR and cloned into vectors pET-44 Ek/LIC (Novagen) and pET SUMO (Invitrogen), respectively. […] Clones were sequenced to verify the correct sequences and orientation. His-tagged recombinant proteins were expressed in BL21(DE3) cells, and purified on Ni-ion sepharose column.
Surface Plasmon resonance analysis was performed to characterize the binding of compounds to STAT3, as previously reported (16). SensiQ and its analysis software Qdat (ICX Technologies, Oklahoma City, Okla.) were used to analyze the interaction between agents and the STAT3 protein and to determine the binding affinity. Purified STAT3 was immobilized on a HisCap Sensor Chip by injecting 50 μg/ml of STAT3 onto the chip. Various concentrations of compounds in running buffer (1×PBS, 0.5% DMSO) were passed over the sensor chip to produce response signals. The association and dissociation rate constants were calculated using the Qdat software. The ratio of the association and dissociation rate constants was determined as the affinity (KD).

Sequence of STAT3 (P42227 whole entry, the tested form may be a part): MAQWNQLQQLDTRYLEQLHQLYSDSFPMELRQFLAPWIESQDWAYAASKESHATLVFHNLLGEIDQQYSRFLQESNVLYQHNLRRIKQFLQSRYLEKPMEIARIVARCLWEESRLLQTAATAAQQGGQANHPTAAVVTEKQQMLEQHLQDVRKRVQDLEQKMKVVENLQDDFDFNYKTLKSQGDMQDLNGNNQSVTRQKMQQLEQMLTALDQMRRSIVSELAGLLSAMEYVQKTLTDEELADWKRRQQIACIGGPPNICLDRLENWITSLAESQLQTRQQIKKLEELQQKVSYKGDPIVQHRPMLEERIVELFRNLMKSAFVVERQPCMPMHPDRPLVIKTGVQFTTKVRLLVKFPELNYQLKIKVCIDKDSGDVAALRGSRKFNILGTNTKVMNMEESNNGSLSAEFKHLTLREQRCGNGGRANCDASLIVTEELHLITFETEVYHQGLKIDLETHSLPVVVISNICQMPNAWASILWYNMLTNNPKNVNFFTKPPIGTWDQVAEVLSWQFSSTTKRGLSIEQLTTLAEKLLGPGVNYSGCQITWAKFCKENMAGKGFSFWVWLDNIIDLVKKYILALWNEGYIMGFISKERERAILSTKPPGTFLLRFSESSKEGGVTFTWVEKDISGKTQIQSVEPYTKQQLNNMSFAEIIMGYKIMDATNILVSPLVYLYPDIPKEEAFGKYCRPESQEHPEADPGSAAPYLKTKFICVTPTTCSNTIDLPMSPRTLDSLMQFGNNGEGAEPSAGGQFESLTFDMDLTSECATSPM

IC50 (MDA-MB-231) [µM]	IC50 (Panc-1) [µM]	Kd (STAT3) [µM]	SMILES	IC50 (NIH3T3) [µM]	IC50 (TE-71) [µM]	IC50 (DU 145) [µM]	IC50 (NIH3T3/v-Src) [µM]	constitutive STAT3 phosphorylation (pY705STAT3 [1])	constitutive STAT3 phosphorylation (pY705STAT3 [2])	constitutive levels of phospho-ErkMAPK (pErk1/2) (pErk1/2)	constitutive levels of Src (pSrc) (pSrc)	epidermal growth factor (EGF)-induced STAT3 phosphorylation (pY705-STAT3)	malignant cell viability [3]	STAT3 phosphorylation during prolonged treatment (pY705STAT3 [1]; NIH3T3/v-Src fibroblasts, time course)	time after treatment at which STAT3 phosphorylation was inhibited (pY705STAT3 [2]; MDA-MB-231, time course) [min]	STAT3 phosphorylation after 6 h of treatment (pY705STAT3 [2]; MDA-MB-231, time course, 6 h)
66.1 ± 2.1	77.2 ± 1.9	39	CC(C)CNc1nc(NCc2ccc(C3CCCCC3)cc2)nc2c1ncn2CC(=O)O [8bj, 2-(2-((4-cyclohexylbenzyl)amino)-6-(isobutylamino)-9H-purin-9-yl)acetic acid]	> 500	> 500	65.3 ± 2.3	41.1 ± 4.6	inhibition of constitutive STAT3 phosphorylation	inhibition of constitutive STAT3 phosphorylation	no effect	no effect	selectively inhibited	decrease in malignant cell viability			
145 ± 4.4	176 ± 5.3	16.7	O=C(O)Cn1cnc2c(NC3CCCC3)nc(NCc3ccc(C4CCCCC4)cc3)nc21 [8be, 2-(2-((4-cyclohexylbenzyl)amino)-6-(cyclopentylamino)-9H-purin-9-yl)acetic acid]	> 500	> 500	68.6 ± 1.8	100 ± 2.2	inhibition of constitutive STAT3 phosphorylation	inhibition of constitutive STAT3 phosphorylation	no effect	no effect		decrease in malignant cell viability	temporarily restored	15 to 30	restoration of STAT3 phosphorylation
